Experimental findings from paper PMC5734728, “The JAK2/STAT3 inhibitor pacritinib effectively inhibits patient-derived GBM brain tumor initiating cells in vitro and when used in combination with temozolomide increases survival in an orthotopic xenograft model” (PLoS ONE, 2017) are described below.

The term IC50 denotes the concentration that inhibits the measured activity by half. As usually defined, the amount remaining is the share of the starting amount still present when the sample was taken.

Where two headings read alike, the source gives them in different places.

Data set [1] can be described thus: in vitro. Conditions: mouse liver microsomes, 30-minute incubation; for % Remaining: 1 μM. Format: in vitro ADME, mouse. The method, then: (§1) Working stocks were initially diluted to a concentration of 40 μM in 0.1 M potassium phosphate buffer before addition to the reaction vials. Pooled mouse (CD-1, male) or human (50 donors) liver microsomes were utilized at a final concentration of 0.5 mg/mL. Duplicate wells were used for each time point (0 and 30 minutes). Reactions were carried out at 37°C in a shaker, and the final concentration of DMSO was kept constant at 0.01%. The final volume for each reaction was 100 μL, which included the addition of an NADPH-Regeneration solution (NRS) mix. The NRS mix was comprised of glucose 6-phosphate dehydrogenase (0.4 U/mL), NADP+ (1.3 mM), MgCl2 (3.3 mM), and glucose 6-phosphate (3.3 mM) in assay mixtures. Upon completion of the 30-minute time point, reactions were terminated by the addition of 1.5-volumes (150 μL) of ice-cold acetonitrile with 0.5% formic acid and internal standard. Samples were then centrifuged at 4,000 rpm for 10 minutes to remove debris and precipitated protein. Approximately 150 μL of supernatant was subsequently transferred to a new 96-well microplate for LC-MS analysis. Narrow-window mass extraction LC-MS analysis was performed for all samples using a Waters Xevo quadrupole time-of-flight (QToF) mass spectrometer and an ACQUITY UPLC system, to determine relative peak areas of parent compound.
A general note: Liver microsomes are a subcellular fraction often used to study metabolism.

In data set [2] the test system is BT124. Nature of the data set: alamarBlue BTIC viability assay, BT124. Format: cell-based. Conditions: Homo sapiens; BTIC line BT124, alamarBlue.
Data set [3] in a line: human liver microsomal stability assay. Format: in vitro ADME. Conditions: human liver microsomes, 30-minute incubation. The method, then: as §1
For data set [4], the system named is BT68. Description: alamarBlue BTIC viability assay, BT68. The class given is cell-based. Conditions: Homo sapiens; BTIC line BT68, alamarBlue.
In data set [5] the test system is BT67. Nature of the data set: alamarBlue BTIC viability assay, BT67. Format: cell-based. Conditions: Homo sapiens; BTIC line BT67, alamarBlue.
Data set [6] can be described thus: five-day pharmacokinetics by LC-MS, serum and brain. The class given is in vivo, mice. Conditions: SCID, mouse, five days, mean ± SD, N = 3; for concentration at 300 min: 300 minutes post-dosing; for concentration at 30 min: 30 minutes post-dosing. The protocol:
Animal studies were performed following institutional ethical guidelines and protocols approved by the University of Calgary Health Sciences Animal Care Committee, accredited by the Canadian Council on Animal Care (CCAC). Non-tumor bearing mice were treated with 100 or 200 mg/kg doses of pacritinib by oral gavage for five consecutive days. Three mice per group were used. Post-dosing, blood was collected at 30 and 300 minute time points. The serum was separated by centrifugation. Liquid chromatography-mass spectrometry (LC-MS) was performed to determine the serum concentration of pacritinib. To determine brain penetration, brains were harvested and processed at the 300 minute time point following transcardiac perfusion with PBS. Brains were removed and flash frozen at -80°C. Pacritinib accumulation in the brain was analyzed using LC-MS.

In data set [7] the test system is patient-derived GBM BTIC cultures. Nature of the data set: neurosphere assay, all BTIC cultures tested. Conditions: 5 μM. The class given is cell-based, human.
In data set [8] the test system is BT69. Nature of the data set: neurosphere assay, BT69. The class given is cell-based, human. Conditions: 3 μM.
Data set [9] relates to BT206 orthotopic xenograft. Description: Kaplan-Meier survival, orthotopic BT206 xenograft. The class given is in vivo. Conditions: BT206 xenografted mice; p < 0.0968 log-rank.
Data set [10] relates to BT53 orthotopic xenograft. Nature of the data set: Kaplan-Meier survival, orthotopic BT53 xenograft. Format: in vivo, mice. Conditions: BT53 xenografted mice, 100 mg/kg pacritinib, three weeks; p < 0.7237 log-rank. The method, then:
For Kaplan-Meier survival studies, BTIC spheres from BT53 or BT147 were dissociated to a single-cell suspension. Mice were anaesthetized using 10 mg/kg ketamine/xylazine. Buprenorphine (0.05 mg/kg) was administered once pre-operatively and once post-operatively to minimize animal suffering. 5 x 10^4 cells were stereotactically implanted into the right striata of 8- to 10-week-old female severe combined immunodeficient (SCID) mice, as previously described and approved by the University of Calgary Health Sciences Animal Care Committee, accredited by CCAC. Mice were randomized to vehicle or treatment cohorts, with a minimum of 8 mice per group, one week after cell implantation. For BT147, vehicle (Ora-Plus; Galenova), pacritinib (100 mg/kg), TMZ (30 mg/kg), or a combination of pacritinib (100 mg/kg) and TMZ (30 mg/kg), were administered via oral gavage. Animals completed a five-week regimen of three weekly treatments for a total of 15 treatments. For BT53, 100 mg/kg of pacritinib was administered twice per day alone or in combination with 50 mg/kg TMZ once per day, for one week via oral gavage. Following this, mice received 100 mg/kg pacritinib twice per day in combination with 10 mg/kg TMZ once per day for two weeks. […] The body weights were closely monitored throughout the course of the experiment. […]

For data set [11], the system named is BT147 orthotopic xenograft. Description: Kaplan-Meier survival, orthotopic BT147 xenograft. The class given is in vivo. Conditions: BT147 xenografted mice. The protocol: For Kaplan-Meier survival studies, BTIC spheres from BT53 or BT147 were dissociated to a single-cell suspension. Mice were anaesthetized using 10 mg/kg ketamine/xylazine. Buprenorphine (0.05 mg/kg) was administered once pre-operatively and once post-operatively to minimize animal suffering. 5 x 10^4 cells were stereotactically implanted into the right striata of 8- to 10-week-old female severe combined immunodeficient (SCID) mice, as previously described and approved by the University of Calgary Health Sciences Animal Care Committee, accredited by CCAC. Mice were randomized to vehicle or treatment cohorts, with a minimum of 8 mice per group, one week after cell implantation. For BT147, vehicle (Ora-Plus; Galenova), pacritinib (100 mg/kg), TMZ (30 mg/kg), or a combination of pacritinib (100 mg/kg) and TMZ (30 mg/kg), were administered via oral gavage. Animals completed a five-week regimen of three weekly treatments for a total of 15 treatments. For BT53, 100 mg/kg of pacritinib was administered twice per day alone or in combination with 50 mg/kg TMZ once per day, for one week via oral gavage. Following this, mice received 100 mg/kg pacritinib twice per day in combination with 10 mg/kg TMZ once per day for two weeks. Mice were euthanized with a lethal dose of sodium pentobarbital at a pre-defined humane endpoint. Specific criteria for the endpoint included: 20% weight loss, lack of grooming, inactivity, hind limb paralysis, and/or inability to eat or drink. The body weights were closely monitored throughout the course of the experiment. […] The presence of tumor was confirmed in the mice via necropsy and cranial dissection.

Data set [12] deals with patient-derived GBM BTIC cultures. Description: alamarBlue viability assay, panel of BTIC cultures. A general note: Alamar Blue is a resazurin reagent that responds to reducing activity.
Method: Accumax (eBioscience) was used to enzymatically dissociate BTIC spheres to single cells. Cells were seeded at 1000 cells per well in 96-well plates and treated with vehicle (DMSO) or drug, 24 hours after plating. BTIC viability was assessed after 7–14 days, once spheres were formed in control wells, by performing the alamarBlue™ (Invitrogen) assay per the manufacturer’s instructions. In brief, the alamar dye was added to each well and plates were read 6 hours later. Fluorescence intensity (excitation 540 nm; emission 590 nm) was measured on a SpectraMax M Series Multi-Mode Microplate reader. […] All experiments were performed in triplicate with a minimum of 3 wells per condition.
BTICs were treated with suboptimal doses of 1 μM pacritinib (CTI Biopharma), 10 μg/mL TMZ (Sigma), or a combination of pacritinib and TMZ. […] Percent inhibition was determined by normalizing each well to the control well (0.1% DMSO).

On to `C1=C/COCc2cc(ccc2OCCN2CCCC2)Nc2nccc(n2)-c2cccc(c2)COC/1` [pacritinib], for which the values for the stability rating result in data set [1] and in data set [3] were “Unstable” and “Stable”, respectively. The figures for the “% Remaining” value in [1], in data set [1] (listed as Pacritinib (run 1)) and in data set [1] (listed as Pacritinib (run 2)) were less than 1%, 0.3% and 0.6%, respectively. Moreover, the IC50 was 1.33 µM in data set [2]; 1.22 µM in data set [4]; 1.08 µM in [5]; 0.62 to 1.66 µM in [12] (Homo sapiens, read-out: IC50 values for the eleven BTIC cultures tested). In data set [3] (1 μM), this compound showed a share remaining at 0.5 h, 1 μM of 76.2 ± 7.9%. The concentration at 300 min in data set [6] (brain, 100 mg/kg oral gavage, read-out: [Brain]) came out at 0.91 ± 0.061 µM; in data set [6] (brain, 200 mg/kg oral gavage, read-out: [Brain]) it was 0.84 ± 0.02 µM; in data set [6] (serum, 100 mg/kg oral gavage, read-out: [Serum]), 0.51 ± 0.14 µM; in data set [6] (serum, 200 mg/kg oral gavage, read-out: [Serum]), 0.43 ± 0.12 µM. In addition, the concentration at 30 min in data set [6] (serum, 100 mg/kg oral gavage) came out at 2.66 ± 0.72 µM; in data set [6] (serum, 200 mg/kg oral gavage) it was 12.6 ± 0.98 µM. Further, the figures for the sphere formation result in [7] and in [8] were “completely inhibit sphere formation” and “completely abolished sphere formation”, respectively. Further, in data set [9], the “efficacy of treatment alone (Kaplan-Meier survival)” value is recorded as “no efficacy”. The “survival advantage, single agent” value was “failed to provide a survival advantage” in [10] and “no survival advantage” in [11] (100 mg/kg pacritinib, p < 0.4649 log-rank). Moreover, the median survival in data set [11] (pacritinib 100 mg/kg, TMZ 30 mg/kg, oral, thrice weekly for five weeks, control 52 days) was 48 days. Also, the viability reduced in [12] (at 1.5 μM, in 10/11 BTIC cultures tested) was found to be 50%.
